Results reported in patent US8685974B2 (Bayer CropScience AG, priority 2009, dated 2014).
Read-outs that look alike come from different tables or passages of the source. Marks after values point to notes of the source that are not given here.

Legend:
[1] = system: Alternaria solani; test: Alternaria test (tomato) / protective; format: in vivo; conditions: 500 ppm active compound, protective spray, evaluated 7 days after inoculation
Experimental: Alternaria Test (Tomato)/Protective
Solvent: 49 parts by weight of N,N-dimethylformamide
Emulsifier: 1 part by weight of alkylaryl polyglycol ether
To produce a suitable preparation of active compound, 1 part by weight of active compound is mixed with the stated amounts of solvent and emulsifier, and the concentrate is diluted with water to the desired concentration.
To test for protective activity, young tomato plants are sprayed with the preparation of active compound at the stated application rate. […] The plants then remain at 96% rel. atmospheric humidity and a temperature of 20° C.
Evaluation is carried out 7 days after the inoculation. 0% means an efficacy which corresponds to that of the control, whereas an efficacy of 100% means that no infection is observed.

[2] = system: Fusarium graminearum; format: cell-based; conditions: 50 μM; for % Inhibition of DON/AcDON at 50 μM: 7 days at 28° C.

## CC(C)Cn1cc(-c2ccnc(N)c2)c(-c2ccc(Cl)s2)n1 [Example 76]
Minor isomer, main value of the example measured by method [a], pH 2.3
  logP value of the minor isomer (in parenthesis in column Isomer ratio [d]): (1.93)
pH 2.3
  log p: 2.04^[a]
[1]
  efficacy: 89%

## CC(C)Cn1cc(-c2ccnc(N(C(=O)C3CC3)C(=O)C3CC3)c2)c(-c2ccc(Cl)s2)n1 [Example 82]
pH 2.3
  log p: 4.75^[a]
[1]
  efficacy: 78%

## CCCc1c(-c2ccncc2)c(-c2sccc2C)nn1C [Example 165]
pH 2.7
  log p: 1.31^[b]
  logP value of the minor isomer: 1.46^[b])
pH 7.8
  log p: 2.59^[c];
  logP value of the minor isomer: (2.79^[c];
[1]
  efficacy: 70%

## CCC(C)n1nc(-c2ccc(Cl)s2)c(-c2ccncc2)c1Cl (stereo not shown) [Example 201]
pH 2.7
  log p: 3.44^[b]
[1]
  efficacy: 78%
[2]
  % Inhibition of fungal growth at 50 μM: 39%
  % Inhibition of DON/AcDON at 50 μM: 94%

## CCC(C)n1cc(-c2ccnc(NC(=O)OC(C)C)c2)c(-c2ccc(Cl)s2)n1 (stereo not shown) [Example 239]
pH 2.7
  log p: 4.33^[b]
[1]
  efficacy: 80%

## CC(C)n1cc(-c2ccnc(NC(=O)c3ccccc3)c2)c(-c2ccc(Cl)s2)n1 [Example 260]
pH 2.7
  log p: 4.03^[b]
[1]
  efficacy: 80%

## CC(C)n1cc(-c2ccncc2)c(-c2cccs2)n1 [Example 300]
pH 2.7
  log p: 1.27^[b]
[1]
  efficacy: 95%
[2]
  % Inhibition of fungal growth at 50 μM: 100%
  % Inhibition of DON/AcDON at 50 μM: 99%

## Cn1cc(-c2ccnc(N)c2)c(-c2ccc(Cl)s2)n1 [Example 305]
pH 2.7
  log p: 1.34^[b]
[1]
  efficacy: 70%

## Clc1ccc(Cn2cc(-c3ccncc3)c(-c3ccc(Cl)s3)n2)s1 [Example 323]
pH 2.7
  log p: 2.64^[b]
[1]
  efficacy: 78%
[2]
  % Inhibition of fungal growth at 50 μM: 6%
  % Inhibition of DON/AcDON at 50 μM: 94%

## CCC(C)n1cc(-c2ccncc2)c(-c2cc3ccsc3s2)n1 (stereo not shown) [Example 328]
pH 2.7
  log p: 2.07^[b]
[1]
  efficacy: 94%
[2]
  % Inhibition of fungal growth at 50 μM: 100%
  % Inhibition of DON/AcDON at 50 μM: 98%

## CCn1cc(-c2ccncc2)c(-c2cc3ccsc3s2)n1 [Example 329]
pH 2.7
  log p: 1.57^[b]
[1]
  efficacy: 94%
[2]
  % Inhibition of fungal growth at 50 μM: 85%
  % Inhibition of DON/AcDON at 50 μM: 98%

## FC(F)(F)Cn1cc(-c2ccncc2)c(-c2cc3ccsc3s2)n1 [Example 330]
pH 2.7
  log p: 1.91^[b]
[1]
  efficacy: 94%
[2]
  % Inhibition of fungal growth at 50 μM: 31%
  % Inhibition of DON/AcDON at 50 μM: 94%

## c1cc(-c2cn(C3CCCC3)nc2-c2cc3ccsc3s2)ccn1 [Example 332]
pH 2.7
  log p: 2.25^[b]
[1]
  efficacy: 94%

## CCC(CC)n1cc(-c2ccncc2)c(-c2cc3ccsc3s2)n1 [Example 333]
pH 2.7
  log p: 2.3^[b]
[1]
  efficacy: 94%
[2]
  % Inhibition of fungal growth at 50 μM: 86%
  % Inhibition of DON/AcDON at 50 μM: 98%

## CC(C)(C)Cn1cc(-c2ccncc2)c(-c2cc3ccsc3s2)n1 [Example 334]
pH 2.7
  log p: 2.35^[b]
[1]
  efficacy: 78%

## CCOCCn1cc(-c2ccncc2)c(-c2cc3ccsc3s2)n1 [Example 337]
pH 2.7
  log p: 1.7^[b]
[1]
  efficacy: 94%
[2]
  % Inhibition of fungal growth at 50 μM: 100%
  % Inhibition of DON/AcDON at 50 μM: 99%

## CC1(Cn2cc(-c3ccncc3)c(-c3ccc(F)s3)n2)CC1(Cl)Cl (stereo not shown) [Example 342]
pH 2.7
  log p: 2.39^[b]
[1]
  efficacy: 89%
[2]
  % Inhibition of fungal growth at 50 μM: 23%
  % Inhibition of DON/AcDON at 50 μM: 97%

## Fc1ccc(-c2nn(C3CCCC3)cc2-c2ccncc2)s1 [Example 344]
pH 2.7
  log p: 2.02^[b]
[1]
  efficacy: 94%
[2]
  % Inhibition of fungal growth at 50 μM: 91%
  % Inhibition of DON/AcDON at 50 μM: 98%

## CC(C)(C)Cn1cc(-c2ccncc2)c(-c2ccc(F)s2)n1 [Example 345]
pH 2.7
  log p: 2.11^[b]
[1]
  efficacy: 94%
[2]
  % Inhibition of fungal growth at 50 μM: 63%
  % Inhibition of DON/AcDON at 50 μM: 97%

## CC(C)(C)Cn1cc(-c2ccncc2)c(-c2ccc(Br)s2)n1 [Example 347]
pH 2.7
  log p: 2.46^[b]
[1]
  efficacy: 70%
[2]
  % Inhibition of fungal growth at 50 μM: 79%
  % Inhibition of DON/AcDON at 50 μM: 99%

## Fc1cccc(Cn2cc(-c3ccncc3)c(-c3ccc(Br)s3)n2)c1F [Example 353]
pH 2.7
  log p: 2.44^[b]
[1]
  efficacy: 78%
